Test results as given in patent US11202757B2, “Dry powder compositions for intranasal delivery” (Formulex Pharma Innovations Ltd., priority 2017, dated 2021).
Counter-ions that a name gives are not always drawn.

Test: Particle size analysis (Malvern laser diffraction)
Format: physicochemical
Conditions: for size range of the active agent particle population: laser diffraction, active agent population of the composition
Experimental: (§1) The spray-drying process was carried out using the Mini Spray Dryer B-290 of Büchi Labortechnik AG. A magnetic stirrer (Fried Electric) was placed under the receiver (receiving chamber), a magnetic bar of appropriate size was inserted into the receiver, and then the diluent was added. […] Quantification was performed using HPLC and a Dionex HPLC instrument. A FEI Quanta-200 Scanning Electron Microscope (SEM) equipped with an Everhart-Thornley Detector was used to obtain the images of the spray-dried powder. The accelerating voltage of 20 kV was applied to provide magnification from 250 to 10,000 times. In addition, an X-ray Element Analysis Detector (Link ISIS, Oxford Instruments, GB) was used to determine the drug and particle identity and their distribution throughout DPI. Particle size was measured using the Malvern Mastersizer 3000 series based on the Light Diffraction method.
as §1, with “England)” for “GB)”

[1] = estimated in the range of 0-40 μm

Compound | size range of the active agent particle population | D(10) of sumatriptan succinate alone [1] | D(50) of sumatriptan succinate alone [1] | D(90) of sumatriptan succinate alone [1] | D(99) of sumatriptan succinate alone [1]
C=CCN1CC[C@]23c4c5ccc(O)c4O[C@H]2C(=O)CC[C@@]3(O)[C@H]1C5 [naloxone hydrochloride] | 5-30 μm |  |  |  | 
COc1ccc2c3c1O[C@H]1C(=O)CC[C@@]4(O)[C@@H](C2)N(C)CC[C@]314.Cl [oxycodone hydrochloride] | 3-30 μm |  |  |  | 
CC(=O)Nc1ccc(O)cc1 [paracetamol] | 2-30 μm |  |  |  | 
CNS(=O)(=O)Cc1ccc2[nH]cc(CCN(C)C)c2c1 [sumatriptan succinate] | 5-25 μm | 5.2 μm | 11.2 μm | 20.1 μm | 27.1 μm
insulin-sodium chloride: small spherical particles of insulin-sodium chloride in the insulin composition | 5-35 μm |  |  |  | 
